Values joined by “and” are separate entries in the source; they are usually repeats but may differ in a detail not shown here. Identical values can stand only once. Inconclusive results and toxic doses are left out.
Tested on: L1210 leukemia ip in BDF1 mice, survival T/C
Assay: NCI In Vivo Anticancer Drug Screen. Data for tumor model L1210 Leukemia (intraperitoneal) in B6D2F1 (BDF1) mice
Conditions: endpoint: mean survival time, higher = longer survival
In short: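 Value reflects the ratio of survival in compound-treated mice to survival in vehicle-treated controls, with both groups carrying the same transplanted tumor.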

[1] = dose: 200.0 mg/kg/injection, schedule: Q01DX001 (ip), vehicle: carboxymethylcellulose (CMC)
[2] = dose: 50.0 mg/kg/injection, schedule: Q04DX003 (ip), vehicle: Klucel (hydroxypropylcellulose) (HPC)
[3] = dose: 100.0 mg/kg/injection, schedule: Q01DX009 (ip), vehicle: Klucel (hydroxypropylcellulose) (HPC)
[4] = dose: 100.0 mg/kg/injection, schedule: Q04DX003 (ip), vehicle: Klucel (hydroxypropylcellulose) (HPC)
[5] = dose: 200.0 mg/kg/injection, schedule: Q01DX009 (ip), vehicle: Klucel (hydroxypropylcellulose) (HPC)
[6] = dose: 200.0 mg/kg/injection, schedule: Q04DX003 (ip), vehicle: Klucel (hydroxypropylcellulose) (HPC)
[7] = dose: 400.0 mg/kg/injection, schedule: Q04DX003 (ip), vehicle: Klucel (hydroxypropylcellulose) (HPC)
[8] = dose: 100.0 mg/kg/injection, schedule: Q04DX003 (ip), vehicle: saline with Tween-80
[9] = dose: 200.0 mg/kg/injection, schedule: Q04DX003 (ip), vehicle: saline with Tween-80
[10] = dose: 400.0 mg/kg/injection, schedule: Q04DX003 (ip), vehicle: saline with Tween-80
[11] = dose: 100.0 mg/kg/injection, schedule: Q01DX009 (ip), vehicle: saline with Tween-80
[12] = dose: 200.0 mg/kg/injection, schedule: Q01DX009 (ip), vehicle: saline with Tween-80
[13] = dose: 12.5 mg/kg/injection, schedule: Q01DX009 (ip), vehicle: saline with Tween-80
[14] = dose: 25.0 mg/kg/injection, schedule: Q01DX009 (ip), vehicle: saline with Tween-80
[15] = dose: 50.0 mg/kg/injection, schedule: Q01DX009 (ip), vehicle: saline with Tween-80
[16] = dose: 100.0 mg/kg/injection, schedule: Q01DX001 (ip), vehicle: saline
[17] = dose: 200.0 mg/kg/injection, schedule: Q01DX001 (ip), vehicle: saline

Which T/C (dose: 12.5 mg/kg/injection, schedule: Q01DX Z (ip), vehicle: other) does the source give for `NC(CCl)CCl` here?
The T/C was 92 % of control.

What about the T/C (dose: 25.0 mg/kg/injection, schedule: Q01DX Z (ip), vehicle: other) of the same compound?
The T/C was 100 % of control.

And the T/C (dose: 100.0 mg/kg/injection, schedule: Q01DX Z (ip), vehicle: other)?
The T/C was 94 % of control.

`CCOC(=O)C(Cc1ccc(N(CCCl)CCCl)cc1)NC=O` (configuration not stated) was tested. Which T/C (dose: 5.0 mg/kg/injection, schedule: Q01DX Z (ip), vehicle: carboxymethylcellulose (CMC)) did it give?
The T/C was 111 % of control.

What about the T/C (dose: 10.0 mg/kg/injection, schedule: Q01DX Z (ip), vehicle: carboxymethylcellulose (CMC)) of the same compound?
Its T/C is 123 % of control.

What about the T/C (dose: 40.0 mg/kg/injection, schedule: Q01DX Z (ip), vehicle: carboxymethylcellulose (CMC)) of the same compound?
Its T/C is 150 % of control.

And the T/C (dose: 88.8 mg/kg/injection, schedule: Q01DX001 (ip), vehicle: carboxymethylcellulose (CMC))?
The T/C was 168 % of control.

What about the T/C (dose: 133.0 mg/kg/injection, schedule: Q01DX001 (ip), vehicle: carboxymethylcellulose (CMC)) of the same compound?
The T/C was 168 % of control.

What about the T/C [1] of the same compound?
The T/C was 150 % of control and 161 % of control and 170 % of control.

What does the source list for `O=P(CCl)(NC12CC3CC(CC(C3)C1)C2)N1CC1` (configuration not stated)?
T/C [2]: 100 % of control; T/C [3]: 97 % of control; T/C [4]: 95 % of control; T/C [5]: 95 % of control; T/C [6]: 103 % of control; T/C (dose: 400.0 mg/kg/injection, schedule: Q01DX009 (ip), vehicle: Klucel (hydroxypropylcellulose) (HPC)): 103 % of control; T/C [7]: 97 % of control

`Cc1nc(N)[nH]c(=O)c1CCCNc1cccc(C(F)(F)F)c1` was tested. Which T/C (dose: 100.0 mg/kg/injection, schedule: Q01DX001 (ip), vehicle: Klucel (hydroxypropylcellulose) (HPC)) did it give?
Its T/C is 92 % of control.

What about the T/C (dose: 200.0 mg/kg/injection, schedule: Q01DX001 (ip), vehicle: Klucel (hydroxypropylcellulose) (HPC)) of the same compound?
Its T/C is 92 % of control.

And the T/C (dose: 400.0 mg/kg/injection, schedule: Q01DX001 (ip), vehicle: Klucel (hydroxypropylcellulose) (HPC))?
The T/C was 97 % of control.

Which T/C [8] does the source give for `CS/C(N)=N\C(=S)Nc1ccccc1` here?
The T/C was 95 % of control.

What about the T/C [9] of the same compound?
The T/C was 97 % of control.

And the T/C [10]?
The T/C was 101 % of control.

What does the source list for `N#CC1=C(N)CCC(C#N)(c2ccccc2)C1` (configuration not stated)?
T/C [11]: 98 % of control; T/C [12]: 91 % of control

For `COc1ccc2c(c1)CCC1C2CCC2(C)C1CCC21CCNP(=O)(N(CCCl)CCCl)O1` (configuration not stated), which T/C [4] is on record?
Its T/C is 101 % of control.

And the T/C [6]?
The T/C was 103 % of control.

And the T/C [7]?
Its T/C is 92 % of control.

With `CCOC(=O)N1Cc2cc3ccccc3nc2C1C1OC(CC)(C(=O)OCC)C1=O` (configuration not stated) as the compound, how does the T/C (dose: 10.0 mg/kg/injection, schedule: Q07DX002 (ip), vehicle: alcohol) read?
The T/C was 96 % of control.

What about the T/C (dose: 20.0 mg/kg/injection, schedule: Q07DX002 (ip), vehicle: alcohol) of the same compound?
The T/C was 105 % of control.

What about the T/C (dose: 40.0 mg/kg/injection, schedule: Q07DX002 (ip), vehicle: alcohol) of the same compound?
Its T/C is 89 % of control.

And the T/C (dose: 80.0 mg/kg/injection, schedule: Q07DX002 (ip), vehicle: alcohol)?
Its T/C is 105 % of control.

`COc1ccc(NC(=O)Nc2ccc(C)cc2C)cc1` was tested. Which T/C [8] did it give?
Its T/C is 93 % of control.

And the T/C [9]?
Its T/C is 90 % of control.

What about the T/C [10] of the same compound?
The T/C was 95 % of control.

Which results are given for `CCOC(=O)CN1CCN2C(=O)N(CC)CCC2C1` (configuration not stated)?
T/C (dose: 100.0 mg/kg/injection, schedule: Q04DX003 (ip), vehicle: saline): 95 % of control; T/C (dose: 200.0 mg/kg/injection, schedule: Q04DX003 (ip), vehicle: saline): 90 % of control; T/C (dose: 400.0 mg/kg/injection, schedule: Q04DX003 (ip), vehicle: saline): 101 % of control

With `O=c1[nH]c2ccccc2nc1C(Cl)Cl` as the compound, how does the T/C [4] read?
The T/C was 115 % of control.

For `OCC1OCOC(CI)C(O)C1O` (configuration not stated), which T/C (dose: 100.0 mg/kg/injection, schedule: Q01DX001 (ip), vehicle: carboxymethylcellulose (CMC)) is on record?
The T/C was 97 % of control.

And the T/C [1]?
Its T/C is 101 % of control.

What about the T/C (dose: 400.0 mg/kg/injection, schedule: Q01DX001 (ip), vehicle: carboxymethylcellulose (CMC)) of the same compound?
Its T/C is 97 % of control.

Which T/C (dose: 50.0 mg/kg/injection, schedule: Q01DX009 (ip), vehicle: saline) does the source give for `CCN(CC)C(=O)c1ccncc1` here?
The T/C was 101 % of control.

And the T/C (dose: 100.0 mg/kg/injection, schedule: Q01DX009 (ip), vehicle: saline)?
The T/C was 106 % of control and 88 % of control.

What about the T/C (dose: 200.0 mg/kg/injection, schedule: Q01DX009 (ip), vehicle: saline) of the same compound?
Its T/C is 97 % of control.

What about the T/C (dose: 400.0 mg/kg/injection, schedule: Q01DX009 (ip), vehicle: saline) of the same compound?
The T/C was 111 % of control.

Which results are given for `COc1cc2cnc3c4cc(OC)c(OC)cc4ccc3c2cc1OC`?
T/C (dose: 80.0 mg/kg/injection, schedule: Q01DX009 (ip), vehicle: saline): 88 % of control; T/C (dose: 120.0 mg/kg/injection, schedule: Q01DX009 (ip), vehicle: saline): 90 % of control; T/C (dose: 240.0 mg/kg/injection, schedule: Q01DX009 (ip), vehicle: saline): 91 % of control

For `O=C(Nc1ccc(Cl)c(Cl)c1)OC1C=CS(=O)(=O)C1` (configuration not stated), which T/C [4] is on record?
The T/C was 104 % of control.

What about the T/C [6] of the same compound?
Its T/C is 104 % of control.

What about the T/C [7] of the same compound?
Its T/C is 96 % of control.

What does the source list for `CC1(CO)CCCC2(C)C3=C(CCCC3)CCC12` (configuration not stated)?
T/C (dose: 5.0 mg/kg/injection, schedule: Q01DX001 (ip), vehicle: other): 102 % of control; T/C (dose: 10.0 mg/kg/injection, schedule: Q01DX001 (ip), vehicle: other): 96 % of control; T/C (dose: 20.0 mg/kg/injection, schedule: Q01DX001 (ip), vehicle: other): 100 % of control; T/C (dose: 40.0 mg/kg/injection, schedule: Q01DX001 (ip), vehicle: other): 98 % of control; T/C (dose: 80.0 mg/kg/injection, schedule: Q01DX001 (ip), vehicle: other): 98 % of control

For `O=NN(CCCl)C(=O)c1cc(Cl)cc(Cl)c1`, which T/C [13] is on record?
Its T/C is 115 % of control.

What about the T/C [14] of the same compound?
The T/C was 117 % of control.

And the T/C [15]?
Its T/C is 111 % of control and 91 % of control.

What about the T/C [11] of the same compound?
Its T/C is 93 % of control.

What about the T/C [12] of the same compound?
The T/C was 99 % of control.

What does the source list for `COC(OC)C1OC(c2ccccc2)OC2COC(c3ccccc3)OC21` (configuration not stated)?
T/C [13]: 92 % of control; T/C (dose: 12.5 mg/kg/injection, schedule: Q04DX003 (ip), vehicle: saline with Tween-80): 93 % of control; T/C [14]: 92 % of control; T/C (dose: 25.0 mg/kg/injection, schedule: Q04DX003 (ip), vehicle: saline with Tween-80): 92 % of control; T/C [15]: 92 % of control; T/C (dose: 50.0 mg/kg/injection, schedule: Q04DX003 (ip), vehicle: saline with Tween-80): 92 % of control

With `CC1=C2[C@H]3OC(=O)[C@@H](C)[C@@H]3CC[C@@]2(C)C=CC1=O` as the compound, how does the T/C [16] read?
Its T/C is 101 % of control.

What about the T/C [4] of the same compound?
Its T/C is 97 % of control.

And the T/C [17]?
Its T/C is 101 % of control.

And the T/C [6]?
Its T/C is 103 % of control.

What does the source list for `O=[N+]([O-])c1cccc(S(=O)(=O)NNc2ccc(Br)cc2)c1`?
T/C [4]: 96 % of control; T/C [6]: 93 % of control; T/C [7]: 89 % of control

What does the source list for `CC(CN=[N+]=[N-])OC(=O)C(F)(F)F` (configuration not stated)?
T/C (dose: 37.5 mg/kg/injection, schedule: Q04DX003 (ip), vehicle: saline): 104 % of control; T/C (dose: 75.0 mg/kg/injection, schedule: Q04DX003 (ip), vehicle: saline): 102 % of control; T/C (dose: 150.0 mg/kg/injection, schedule: Q04DX003 (ip), vehicle: saline): 106 % of control

What does the source list for `CC(C)(C)/C([O-])=N/[N+](C)(C)C`?
T/C [16]: 108 % of control; T/C [17]: 97 % of control; T/C (dose: 400.0 mg/kg/injection, schedule: Q01DX001 (ip), vehicle: saline): 101 % of control

Which results are given for `CC1(C)N=C(N)N=C(N)N1c1ccc(CCCCc2cccc(S(=O)(=O)F)c2)c(Cl)c1`?
T/C (dose: 6.25 mg/kg/injection, schedule: Q01DX009 (ip), vehicle: saline with Tween-80): 106 % of control; T/C [13]: 104 % of control; T/C [14]: 113 % of control

How did the T/C [2] turn out when `O=C(CS)OCCOC(=O)CS` was run?
The T/C was 105 % of control.

And the T/C [3]?
The T/C was 92 % of control.

And the T/C [4]?
The T/C was 101 % of control.

And the T/C [5]?
The T/C was 87 % of control.

What about the T/C [6] of the same compound?
Its T/C is 106 % of control.

What about the T/C [7] of the same compound?
The T/C was 86 % of control.

`Cc1n[nH]c(C)c1C(C)C` was tested. Which T/C (dose: 50.0 mg/kg/injection, schedule: Q01DX001 (ip), vehicle: saline) did it give?
Its T/C is 103 % of control.

What about the T/C [16] of the same compound?
The T/C was 101 % of control.

What about the T/C [17] of the same compound?
Its T/C is 86 % of control.
